Bridge positions count the residues as written; N and C are the ends. Ends that are not written are not given here.
Columns and labels:
Assay type in all cases: cell-based, mouse
Conditions in all cases: MC-3T3.E1/J1 cells, serum starved, stimulated for 3 minutes
[1] = system: phospho-p44/42 mitogen activated proteine kinase (MAPK) (Thr 202/204); test: Western blot of p44/42 MAPK phosphorylation in growth-factor-stimulated MC3T3.E1/J1 osteoblastic cells
From the text: (§1) The MC3T3. E1/J1 cell line was isolated from a parental cell line, MC3T3-E1 (available from Invitrogen), which had in turn been derived from newborn C57BL/6 mouse calvaria. The MC3T3 E1/J1 line is described as an osteoblastic line. Care is taken in culture not to use a medium with a pH greater than 7.5 or to allow the cells to become confluent, as this causes a de-differentiation to form a fibroblastic phenotype. This reversion to a fibroblastic phenotype is a common feature of osteoblastic cell cultures.
(§2) MC3T3.E1/J1 cells were routinely maintained in complete media (α-modified minimum essential medium eagle+10% foetal calf serum+1% glutamine+10% M1). MC3T3.E1/J1 cells were plated at 1.7×10^4 cells/well (24 well plates) in complete media and incubated at 37° C. in 5% CO2 for 48 hours. Cells were washed twice in phosphate buffered saline and re-incubated for approximately 17 hours in serum starvation media (α-modified minimum essential medium eagle+1% glutamine).
(§3) Cells were then stimulated with growth factor (ET-1 or EGF) for 3 minutes. All media was then removed and the cells lysed in 2× laemli buffer. Following electrophoresis and western blotting, membranes were probed with phospho-p44/42 mitogen activated proteine kinase (MAPK)^(Thr 202/204), phosphor-AKT^(Ser 473) and phospho-EGF Receptor^(tyr 1173) specific antibodies.

[2] = system: phospho-EGF Receptor (tyr 1173); test: Western blot of EGF receptor phosphorylation in growth-factor-stimulated MC3T3.E1/J1 osteoblastic cells
From the text: as §1, §2, §3

[3] = system: phosphor-AKT (Ser 473); test: Western blot of AKT phosphorylation in growth-factor-stimulated MC3T3.E1/J1 osteoblastic cells
From the text: as §1, §2, §3

## endothelin-1 (CSCSSLMDKECVYFCHLDIIW; disulfide 1-15, 3-11; ends not checked; UniProt P05305 53-73, looked up) [ET-1, endogenous 21 amino acid peptide, endothelin isoform, used as growth factor stimulus]
[1]
  p44/42 MAPK phosphorylation: stimulates

## epidermal growth factor [EGF, growth factor used as stimulus]
[2]
  EGFR tyr1173 phosphorylation: stimulates
[3]
  AKT phosphorylation: stimulates
[1]
  p44/42 MAPK phosphorylation: stimulates

From patent publication US20060122180A1, “Therapeutic treatment” (priority 2002, published 2006)
